Data as given in PubChem BioAssay AID1918946 (Molecular Pharmacology Branch, DTP, NCI, 2023).
Where “and” joins values, the source holds several entries; their conditions need not be identical. Equal entries are not always repeated.

Test system: 885512-296-R-J2-PDC complex spheroid viability
Test: Anticancer human tumor 885512-296-R-J2-PDC patient-derived breast carcinoma cell line growth inhibition
Conditions: for viability, T/C: stronger effect = lower value
In short: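 Complex spheroids of tumor cells with HUVEC and human MSCs, exposed to iadademstat combined with other agents. Each agent tested in half-log steps from near clinical Cmax (else 10 microM top), DMSO ≤0.25%.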

[1] = curve of first compound, second compound 0.1 µM
[2] = curve of first compound, second compound 0.316 µM
[3] = curve of first compound, second compound 1 µM
[4] = curve of first compound, second compound 3.16 µM
[5] = curve of first compound, second compound 10 µM
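Note: spheroids exposed to agents for 7 days before viability read.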

With COc1cc(Nc2ncc3c(n2)-c2ccc(Cl)cc2C(c2c(F)cccc2OC)=NC3)ccc1C(=O)O + NC1CC1c1ccc(-c2cccc(O)c2)cc1 the IC50 [1] was under 3.16 nM, the IC50 [2] was under 3.16 nM and the IC50 [3] was under 3.16 nM. For the same molecule, the IC50 [4] was under 3.16 nM, the IC50 [5] was under 3.16 nM and the viability, T/C (second compound 0.1 µM, first compound 0.00316 µM) was 32%. It also gave a viability, T/C (second compound 0.1 µM, first compound 0.01 µM) of 34%, a viability, T/C (second compound 0.1 µM, first compound 0.0316 µM) of 17.9% and a viability, T/C (second compound 0.1 µM, first compound 0.1 µM) of 23.5%. For the same molecule, the viability, T/C (second compound 0.1 µM, first compound 0.316 µM) was 21.7%, the viability, T/C (second compound 0.1 µM, first compound 1 µM) was 20.1% and the viability, T/C (second compound 0.316 µM, first compound 0.00316 µM) was 30.3%. For the same molecule, the viability, T/C (second compound 0.316 µM, first compound 0.01 µM) was 35.4%, the viability, T/C (second compound 0.316 µM, first compound 0.0316 µM) was 20.9% and the viability, T/C (second compound 0.316 µM, first compound 0.1 µM) was 21.7%. The viability, T/C (second compound 0.316 µM, first compound 0.316 µM) was 25.4%, the viability, T/C (second compound 0.316 µM, first compound 1 µM) was 19.1% and the viability, T/C (second compound 1 µM, first compound 0.00316 µM) was 33.5%. For the same molecule, the viability, T/C (second compound 1 µM, first compound 0.01 µM) was 35.8%, the viability, T/C (second compound 1 µM, first compound 0.0316 µM) was 20.4% and the viability, T/C (second compound 1 µM, first compound 0.1 µM) was 21.6%. It also gave a viability, T/C (second compound 1 µM, first compound 0.316 µM) of 22.1%, a viability, T/C (second compound 1 µM, first compound 1 µM) of 19.6% and a viability, T/C (second compound 3.16 µM, first compound 0.00316 µM) of 27%. The viability, T/C (second compound 3.16 µM, first compound 0.01 µM) was 29.8%, the viability, T/C (second compound 3.16 µM, first compound 0.0316 µM) was 19.8% and the viability, T/C (second compound 3.16 µM, first compound 0.1 µM) was 13.2%. For the same molecule, the viability, T/C (second compound 3.16 µM, first compound 0.316 µM) was 19.4%, the viability, T/C (second compound 3.16 µM, first compound 1 µM) was 15.4% and the viability, T/C (second compound 10 µM, first compound 0.00316 µM) was 15%. It also gave a viability, T/C (second compound 10 µM, first compound 0.01 µM) of 20.2%, a viability, T/C (second compound 10 µM, first compound 0.0316 µM) of 14.2% and a viability, T/C (second compound 10 µM, first compound 0.1 µM) of 8.64%. For the same molecule, the viability, T/C (second compound 10 µM, first compound 0.316 µM) was 11.8% and the viability, T/C (second compound 10 µM, first compound 1 µM) was 12.7%.

For CCc1c2c(nc3ccc(O)cc13)-c1cc3c(c(=O)n1C2)COC(=O)[C@]3(O)CC, the viability, T/C (compound 0.000949 µM) was 7.33% and 2.09%, the viability, T/C (compound 0.003 µM) was 4.69% and 2% and the viability, T/C (compound 0.00949 µM) was 4.28% and 1.07%. For the same molecule, the viability, T/C (compound 0.03 µM) was 6.78% and 1.14%, the viability, T/C (compound 0.0949 µM) was 12.3% and 1.2% and the viability, T/C (compound 0.3 µM) was 3.96% and 1.27%. The IC50 (curve of compound) was under 0.949 nM.

For O=C(c1cc(Cc2n[nH]c(=O)c3ccccc23)ccc1F)N1CCN(C(=O)C2CC2)CC1, the viability, T/C (compound 0.0316 µM) was 81.2% and 95.5%, the viability, T/C (compound 0.1 µM) was 92.8% and 89.7% and the viability, T/C (compound 0.316 µM) was 57.2% and 74.8%. The viability, T/C (compound 1 µM) was 17.2% and 46.9%, the viability, T/C (compound 3.16 µM) was 10.2% and 11.8% and the viability, T/C (compound 10 µM) was 7.83% and 6.41%. The IC50 (curve of compound) was 395 nM and 813 nM.

Nc1ccn(C2OC(CO)C(O)C2(F)F)c(=O)n1 (centres undefined) + NC1CCC(NC2CC2c2ccccc2)CC1 gave an IC50 [1] of under 0.949 nM, an IC50 [2] of under 0.949 nM and an IC50 [3] of under 0.949 nM. It also gave an IC50 [4] of under 0.949 nM, an IC50 [5] of under 0.949 nM and a viability, T/C (second compound 0.1 µM, first compound 0.000949 µM) of 2.54%. The viability, T/C (second compound 0.1 µM, first compound 0.003 µM) was 9.95%, the viability, T/C (second compound 0.1 µM, first compound 0.00949 µM) was 3.52% and the viability, T/C (second compound 0.1 µM, first compound 0.03 µM) was 9.59%. The viability, T/C (second compound 0.1 µM, first compound 0.0949 µM) was 5.54%, the viability, T/C (second compound 0.1 µM, first compound 0.3 µM) was 10.4% and the viability, T/C (second compound 0.316 µM, first compound 0.000949 µM) was 2.51%. For the same molecule, the viability, T/C (second compound 0.316 µM, first compound 0.003 µM) was 5.66%, the viability, T/C (second compound 0.316 µM, first compound 0.00949 µM) was 5.62% and the viability, T/C (second compound 0.316 µM, first compound 0.03 µM) was 2.98%. The viability, T/C (second compound 0.316 µM, first compound 0.0949 µM) was 10%, the viability, T/C (second compound 0.316 µM, first compound 0.3 µM) was 7.9% and the viability, T/C (second compound 1 µM, first compound 0.000949 µM) was 10.2%. For the same molecule, the viability, T/C (second compound 1 µM, first compound 0.003 µM) was 2.49%, the viability, T/C (second compound 1 µM, first compound 0.00949 µM) was 2.65% and the viability, T/C (second compound 1 µM, first compound 0.03 µM) was 2.66%. The viability, T/C (second compound 1 µM, first compound 0.0949 µM) was 5.52%, the viability, T/C (second compound 1 µM, first compound 0.3 µM) was 10.6% and the viability, T/C (second compound 3.16 µM, first compound 0.000949 µM) was 2.36%. For the same molecule, the viability, T/C (second compound 3.16 µM, first compound 0.003 µM) was 6.19%, the viability, T/C (second compound 3.16 µM, first compound 0.00949 µM) was 2.7% and the viability, T/C (second compound 3.16 µM, first compound 0.03 µM) was 3.2%. It also gave a viability, T/C (second compound 3.16 µM, first compound 0.0949 µM) of 2.6%, a viability, T/C (second compound 3.16 µM, first compound 0.3 µM) of 5.18% and a viability, T/C (second compound 10 µM, first compound 0.000949 µM) of 4.44%. The viability, T/C (second compound 10 µM, first compound 0.003 µM) was 4.02%, the viability, T/C (second compound 10 µM, first compound 0.00949 µM) was 3.03% and the viability, T/C (second compound 10 µM, first compound 0.03 µM) was 2.62%. For the same molecule, the viability, T/C (second compound 10 µM, first compound 0.0949 µM) was 4.97% and the viability, T/C (second compound 10 µM, first compound 0.3 µM) was 2.63%.
